In PubChem BioAssay (NCI):
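Growth conditions: 96-well plates. Treatment: test compound, 48 hours, 5 concentrations. Analysis: linear interpolation between bracketing concentrations; unreached endpoints set to highest concentration. GI50 is the concentration that inhibits growth by half. At the TGI there is no net growth.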

Assays:
Test in all cases: inhibition of tumour cell growth, NCI panel, 48 h
HOP-92 NSCLC = tested on: HOP-92 NSCLC
SR leukemia = tested on: SR leukemia
MALME-3M melanoma = tested on: MALME-3M melanoma
SNB-75 CNS = tested on: SNB-75 CNS
UO-31 renal = tested on: UO-31 renal
SK-MEL-2 melanoma = tested on: SK-MEL-2 melanoma
786-0 renal = tested on: 786-0 renal
ACHN renal = tested on: ACHN renal
U251 CNS = tested on: U251 CNS
BT-549 breast = tested on: BT-549 breast
CAKI-1 renal = tested on: CAKI-1 renal
HCT-15 colon = tested on: HCT-15 colon
HOP-62 NSCLC = tested on: HOP-62 NSCLC
MOLT-4 leukemia = tested on: MOLT-4 leukemia
CCRF-CEM leukemia = tested on: CCRF-CEM leukemia
HL-60(TB) leukemia = tested on: HL-60(TB) leukemia
SF-295 CNS = tested on: SF-295 CNS
TK-10 renal = tested on: TK-10 renal
MDA-MB-435 = tested on: MDA-MB-435
SF-268 CNS = tested on: SF-268 CNS
HCT-116 colon = tested on: HCT-116 colon
A498 renal = tested on: A498 renal
IGROV1 ovarian = tested on: IGROV1 ovarian
SK-MEL-5 melanoma = tested on: SK-MEL-5 melanoma
PC-3 prostate = tested on: PC-3 prostate
COLO 205 colon = tested on: COLO 205 colon
SNB-19 CNS = tested on: SNB-19 CNS
RXF 393 renal = tested on: RXF 393 renal
SW-620 colon = tested on: SW-620 colon

COc1cc(N2CCC(N3CCN(C)CC3)CC2)ccc1Nc1ncnc(Nc2ccccc2S(=O)(=O)C(C)C)n1
GI50 (HOP-92 NSCLC): 0.467 µM
TGI (HOP-92 NSCLC): 2.03 µM
GI50 (SR leukemia): 0.104 µM
TGI (SR leukemia): 18.7 µM
GI50 (MALME-3M melanoma): 3.12 µM
TGI (MALME-3M melanoma): 20.2 µM
GI50 (SNB-75 CNS): 3.63 µM
TGI (SNB-75 CNS): 15.9 µM
GI50 (UO-31 renal): 2.62 µM
TGI (UO-31 renal): 12.6 µM
GI50 (SK-MEL-2 melanoma): 5.83 µM
TGI (SK-MEL-2 melanoma): 16.3 µM
GI50 (786-0 renal): 8.55 µM
TGI (786-0 renal): 22.9 µM
GI50 (ACHN renal): 2.38 µM
TGI (ACHN renal): 14.8 µM
GI50 (U251 CNS): 4.34 µM
TGI (U251 CNS): 19.1 µM
GI50 (BT-549 breast): 18.4 µM
TGI (BT-549 breast): 44.7 µM
GI50 (CAKI-1 renal): 3.32 µM
TGI (CAKI-1 renal): 13 µM
GI50 (HCT-15 colon): 3.5 µM
TGI (HCT-15 colon): > 46.5 µM
GI50 (HOP-62 NSCLC): 2.29 µM
TGI (HOP-62 NSCLC): 11.1 µM
GI50 (MOLT-4 leukemia): 5.07 µM
TGI (MOLT-4 leukemia): > 64.8 µM
GI50 (CCRF-CEM leukemia): 5.84 µM
TGI (CCRF-CEM leukemia): > 42.7 µM
GI50 (HL-60(TB) leukemia): 11.7 µM
TGI (HL-60(TB) leukemia): 32.2 µM
GI50 (SF-295 CNS): 4.55 µM
TGI (SF-295 CNS): 24 µM
GI50 (TK-10 renal): 5.21 µM
TGI (TK-10 renal): 22 µM
GI50 (MDA-MB-435): 2.6 µM
TGI (MDA-MB-435): 10.2 µM
GI50 (SF-268 CNS): 4.39 µM
TGI (SF-268 CNS): 28.7 µM
GI50 (HCT-116 colon): 4.94 µM
TGI (HCT-116 colon): 22.7 µM
GI50 (A498 renal): 2.3 µM
TGI (A498 renal): 17.2 µM
GI50 (IGROV1 ovarian): 2.64 µM
TGI (IGROV1 ovarian): 7.5 µM
GI50 (SK-MEL-5 melanoma): 4.62 µM
TGI (SK-MEL-5 melanoma): 18.1 µM
GI50 (PC-3 prostate): 5.33 µM
TGI (PC-3 prostate): > 51.4 µM
GI50 (COLO 205 colon): 3.21 µM
TGI (COLO 205 colon): 11.1 µM
GI50 (SNB-19 CNS): 4.98 µM
TGI (SNB-19 CNS): > 69.3 µM
GI50 (RXF 393 renal): 3.42 µM
TGI (RXF 393 renal): 17.3 µM
GI50 (SW-620 colon): 3.68 µM
